Laboratory results: patent publication US10653680B2, “Treatment of impulsivity-related disorders” (OXFORD UNIVERSITY INNOVATION LIMITED, priority 2016, dated 2020)

Assays:
[1] = test system: rats; assay: 5-CSRTT, stimulant (cocaine)-induced responding; format: in vivo, rats (males; Long Evans)
Method: (§1) Testing was carried out in Vancouver (Canada) using rats (males; Long Evans from Charles River) which were given at least two weeks to acclimatise to the animal facility. They were housed in pairs on a 12 hour reverse light-dark cycle (lights off at 7 am). In the second week of acclimatisation, rats were handled briefly each day. […] For each task, there was then a habituation session to the operant boxes before training began.
(§2) Ebselen, cocaine and 2,5-dimethoxy-4-iodoamphetamine (DOI) were obtained from Sigma Aldrich, and MDL 100,907 was obtained from Tocris. Ebselen was dissolved in 0.5M DMSO and made up to injection volume (8 ml/kg) using 4% cyclodextrin. Cocaine and DOI were dissolved in 0.9% saline. MDL 100,907 was dissolved in 0.9% saline and the pH was adjusted to 6.25 using 1M NaOH and 0.1M HCl.
(§3) All data for the cognitive tasks are presented as mean+SEM change from baseline: • performance on drug day−performance on the previous day
In experiments investigating the effect of ebselen on cocaine and DOI, data were analysed with a two-way ANOVA with ebselen and cocaine/DOI as between-subject factors. If an interaction was detected, this was further investigated using simple main effects analysis. All analyses were conducted using SPSS 22 with p<0.05 considered significant.
To assess the effect of ebselen on stimulant-induced responding, ebselen (10 mg/kg) or vehicle was administered 1 hour prior to cocaine (15 mg/kg i.p.), which in turn was administered 10 minutes prior to testing. Treatments were administered using according to a Latin square design. The inter-trial interval for these sessions was 5 seconds. Two rats were excluded from the data due to increasing levels of omissions across all days of this portion of the study. The experiment was repeated using 0.03 mg/kg MDL 100,907 instead of ebselen.

[2] = WO 2012/107735; cited from earlier work
[3] = test system: humans; conditions: at pharmaceutically effective dosages; clinical trials for ischemic stroke (Yamaguchi et al); cited from earlier work
[4] = test system: rats; assay: Rodent Gambling Task (rGT); format: in vivo, rats (males; Long Evans)
Method: as §1, §2, §3
The data were analysed with repeated measures ANOVA with dose as a within-subject factor. Where appropriate, post-hoc analysis was performed using Student's paired t-test.
The Latin square design (for both the 5-CSRTT and rGT experiments) was counterbalanced, based on performance in the last training day of each task. A one week wash-out period was given between drug-administration days. A baseline session was performed both the day before and the day after treatment to ensure stable off-drug performance.
This was performed as described previously (Zeeb et al; Neuropsychopharmacology, 2009, 34(10), 2329-2343), and is illustrated schematically in FIG. 2. Twenty one rats were trained to respond in standard 5-CSRTT boxes. Once reliable responding was established, different reward contingencies were associated with four nose-poke apertures (the central aperture was not used in this task). In each case, the reward size and probability of outcome differed between the choices. When no reward was delivered, a fixed-length time-out was delivered. The length of this time-out was varied between choices, with the longest time-out being associated with the largest, least likely reward. […] On the other 20% of occasions, a 10 second time-out was initiated. Once stable performance was achieved, rats were administered ebselen (2, 5 and 10 mg/kg i.p.) or vehicle in a Latin square design.

[5] = test system: healthy participants; assay: Human study: subjective ratings (PANAS mood, side effect profile, LSEQ sleep, guess of treatment arm); format: in vivo
From the text: Twenty healthy participants (7 females, 13 males; mean age 25.1 years, range 20-38 years; mean BMI 22.7 kg/m^2, range 18.7-30.0 kg/m^2) were included in the study after giving full informed written consent.
Exclusion criteria included a history of any DSM-5 Axis I psychiatric disorder (determined using the […] for Diagnostic and Statistical Manual for Mental Health Disorders), significant current medical condition, current regular medication (apart from the contraceptive pill), pregnancy or lactation, heavy smoking (defined as more than 5 cigarettes per day) and having taken part in another study involving an investigational drug within the previous 3 months. Participants were asked to maintain stable exercise and diet as well as refrain from alcohol during study participation.
Ebselen capsules and identical matching placebo (containing microcrystalline cellulose) were purchased from Shasun Pharmaceuticals Ltd. Participants were tested twice (seven days apart) receiving on one occasion ebselen and, on the other, placebo in a randomised, double-blind, cross-over design. Ebselen was administered in 6×200 mg capsules in three doses given over two days. The order of receiving either the ebselen or the placebo was randomised.
On the day before cognitive testing, participants took the first dose at 1 pm and the second dose at 10 pm. The final dose was taken around 3 hrs prior to cognitive testing. Participants were sent text message reminders a few minutes before they were due to take medication, and were asked to confirm receipt of the messages. The cognitive tasks were carried out immediately after a magnetic resonance spectroscopy study.
On the screening visit, participants were assessed for baseline depression and anxiety symptoms with the Beck Depression Inventory (Beck et al.; Arch. Gen. Psychiatry; 1961, 4: 561-571) and the state measure of the State-Trait Anxiety Inventory (STAI) (Spielberger et al.; Manual for the State-Trait Anxiety Inventory, Consulting Psychologists Press, Palo Alto Calif., 1983), and for personality with the Eysenck Personality Questionnaire (Eysenck and Eysenck, Manual of the Eysenck Personality Questionnaire, London: Hodder & Stoughton, 1975). On the morning preceding psychological testing, the Leeds Sleep Evaluation Questionnaire (LSEQ) was completed within 30 minutes of waking (Parrot and Hindmarch, Psychopharmacology, 1980, 71, 173-179).
Before cognitive testing, participants were asked to rate their mood using the Positive and Negative Affective Schedule (PANAS) (Watson et al.; J. Pers. Soc. Psychol., 1988, 54, 1063-1070), to complete a side effect profile using a 4-point rating scale and also to guess as to whether they had received ebselen or placebo on that randomization arm. […]

O=c1c2ccccc2[se]n1-c1ccccc1 [Ebselen, 2-phenyl-1,2-benzisoselenazol-3(2H)-one]
any other measure ([1]; ebselen 10 mg/kg / cocaine 15 mg/kg experiment): No effects | reversal of the cocaine effect on omissions ([1]; ebselen 10 mg/kg before cocaine 15 mg/kg, p=0.463): not reversed | reversal of the cocaine effect on accuracy ([1]; ebselen 10 mg/kg before cocaine 15 mg/kg, p=0.969, interaction p=0.278): not reversed | cocaine-induced premature responses ([1]; ebselen 10 mg/kg i.p. 1 hour prior to cocaine 15 mg/kg i.p., p=0.023): reduced cocaine-induced premature responses | number of premature responses, ebselen/cocaine vs vehicle/vehicle treatment ([1]; ebselen 10 mg/kg, cocaine 15 mg/kg i.p., p=0.909): did not differ | transfer across the blood/brain barrier [2]: capable of transferring across the blood/brain barrier | toxicity in humans [3]: sufficiently non-toxic | premature responses ([4]; ebselen 2 mg/kg i.p. vs vehicle, p=0.052): decreased premature responses | response latency (increase in time to respond) ([4]; ebselen 2 mg/kg, paired t-test, p=0.056): trend | reward latency (time taken to collect rewards) ([4]; ebselen 2 mg/kg, p=0.024): significant increase | premature responses ([4]; ebselen 5 mg/kg i.p. vs vehicle, p=0.077): decreased trend | response latency (increase in time to respond) ([4]; ebselen 5 mg/kg, paired t-test, p=0.028): significant | reward latency ([4]; ebselen 5 mg/kg, p=0.069): trend increase | premature responses ([4]; ebselen 10 mg/kg i.p. vs vehicle, p=0.028): decreased premature responses | response latency ([4]; ebselen 10 mg/kg, paired t-test, p=0.246): no significant effect | reward latency (time taken to collect rewards) ([4]; ebselen 10 mg/kg, p=0.005): significant increase | reward latency ([4]; ebselen 2, 5, 10 mg/kg i.p., overall ANOVA, p=0.062): no effect | response latency ([4]; ebselen 2, 5, 10 mg/kg i.p., overall ANOVA, p=0.090): no effect | number of trials completed during the sessions ([4]; ebselen 2, 5, 10 mg/kg i.p., p=0.546): no effect | choice behaviour ([4]; ebselen 2, 5, 10 mg/kg i.p., p=0.596): no effect | premature responses ([4]; ebselen 2, 5 and 10 mg/kg i.p. overall, p=0.088): overall trend to decreased premature responses | tolerability ([5]; 20 healthy participants, 6x200 mg in three doses over two days, no participants dropped out): well tolerated | frequency of other side effects ([5]; ebselen and placebo treatment compared): low and comparable frequency of side effects | subjective measures of sleep (LSEQ) ([5]; ebselen vs placebo): no significant differences | participants who reported feeling drowsy ([5]; of 20 participants on ebselen treatment, none on placebo): Five
